# Results: publication PMC7154053, “Chemical, Metabolic, and Cellular Characterization of a FtsZ Inhibitor Effective Against Burkholderia cenocepacia” (Frontiers in Microbiology, 2020)
# Read-outs that look alike come from different tables or passages of the source.
# How the values were obtained:
# [1] = biological target: Burkholderia cenocepacia purified FtsZ protein (Burkholderia cenocepacia, UniProt B4E5Y7); test: biochemical; format: biochemical; details: for Inhibition of Bc FtsZ At 100 μM: 100 μM compound; for Inhibition of Bc FtsZ At 100 μM / Inhibits B. cenocepacia FtsZ GTPase at 100µM?: Yes/No; for Inhibits B. cenocepacia FtsZ GTPase at 100µM?: Supplementary Table 1
# Chain of Burkholderia cenocepacia purified FtsZ protein (B4E5Y7 entry or part of it): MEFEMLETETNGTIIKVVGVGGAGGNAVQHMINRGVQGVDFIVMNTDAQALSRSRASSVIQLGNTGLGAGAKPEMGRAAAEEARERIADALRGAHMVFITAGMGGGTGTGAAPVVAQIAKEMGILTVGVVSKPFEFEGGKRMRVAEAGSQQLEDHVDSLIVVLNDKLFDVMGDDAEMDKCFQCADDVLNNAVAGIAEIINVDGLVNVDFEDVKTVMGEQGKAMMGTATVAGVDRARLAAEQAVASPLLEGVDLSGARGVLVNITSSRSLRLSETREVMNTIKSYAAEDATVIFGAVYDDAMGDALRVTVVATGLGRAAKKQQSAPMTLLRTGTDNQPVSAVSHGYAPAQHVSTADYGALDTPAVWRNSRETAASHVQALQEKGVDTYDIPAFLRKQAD
# Method: All the recombinant FtsZ proteins were expressed at 20°C overnight in E. coli BL21(DE3) cells, upon induction with 0.5 mM IPTG, and purified using the same protocol assessed for the wild-type B. cenocepacia FtsZ (Hogan et al., [2018]).
# GTPase enzyme activity was determined using a pyruvate kinase/L-lactic dehydrogenase (PK/LDH) spectrophotometric coupled assay (Ingerman and Nunnari, [2005]). The assays were performed at 30°C, in a reaction mixture containing […] Hepes pH 7.5, 5 mM MgCl2, 5 mM KCl, 10 U PK/LDH, 0.25 mM NADH, 0.25 mM PEP, and 5–10 μM FtsZ, and initiated by the addition of 0.5 mM GTP. Alternatively, GTPase activity was determined by measuring the release of phosphate using the malachite green assay (Baykov et al., [1988]).
# (1) A[I]=A[0]×(1-[I]/[I]+IC50)
# where A[I] is the enzyme activity at inhibitor concentration [I] and A[0] is the enzyme activity without inhibitor.
# S. aureus ATCC 25923 = test: MIC, 2-fold microdilution, resazurin method; format: cell-based, Staphylococcus aureus; details: for MIC: Staphylococcus aureus, ATCC25923; for spectrum of activity, in words: S. aureus vs Gram-negative species
# Method: (§1) Burkholderia cenocepacia strains, Escherichia coli ATCC 25922, Pseudomonas aeruginosa PAO1, and Staphylococcus aureus ATCC 25923 were grown in Luria-Bertani (LB) medium (Difco), if not differently specified, with shaking at 200 rpm, or on LB agar, at 37°C.
# (§2) The microtiter plates were incubated at 37°C for 48 (for B. cenocepacia) or 24 h (for all the other strains) and growth was determined by the resazurin method (Martin et al., [2006]). A solution of resazurin sodium salt (Sigma Aldrich) was prepared at 0.01% in distilled water and filter-sterilized. Thirty microliter of resazurin solution were added to each well after 1 or 2 days of incubation at 37°C, and the microtiters were re-incubated at the same temperature for 4 h. The MIC was defined as the lowest concentration of the drug that prevented a change in color from blue to pink, which indicates bacterial growth.
# (§3) Three independent biological replicates were used for each MIC determination.
# B. cenocepacia J2315 = test: MIC, 2-fold microdilution, resazurin method; format: cell-based, Burkholderia cenocepacia; details: for MIC: Burkholderia cenocepacia; for activity compared with C109, in words: SAR statements, against both bacteria and the purified enzyme
# Method: as §1, §2, §3
# P. aeruginosa PAO1 = test: MIC, 2-fold microdilution, resazurin method; format: cell-based; details: Pseudomonas aeruginosa, PAO1
# Method: as §1, §2, §3
# E. coli ATCC 25922 = test: MIC, 2-fold microdilution, resazurin method; format: cell-based; details: Escherichia coli, ATCC25922
# Method: as §1, §2, §3
# [2] = LB, 24 h, read-out: MIC S. aureus 25923
# [3] = Supplementary Table 1, read-out: MIC (µg/ml) S. aureus 25923
# [4] = J2315, LB, 48 h, read-out: MIC B. cenocepacia J2315
# [5] = J2315, Supplementary Table 1, read-out: MIC (µg/ml) B. cenocepacia J2315
# [6] = LB, 24 h, read-out: MIC P. aeruginosa PAO1
# [7] = Supplementary Table 1, read-out: MIC (µg/ml) P. aeruginosa PAO1
# [8] = LB, 24 h, read-out: MIC E. coli 25922
# [9] = Supplementary Table 1, read-out: MIC (µg/ml) E. coli 25922
Structure (SMILES),IC50 [1] [µM],Inhibition of Bc FtsZ At 100 μM [1],Inhibits B. cenocepacia FtsZ GTPase at 100µM? [1],melting point [°C],MIC (S. aureus ATCC 25923; [2]) [µg/mL],MIC (S. aureus ATCC 25923; [3]) [µg/mL],MIC (B. cenocepacia J2315; [4]) [µg/mL],MIC (B. cenocepacia J2315; [5]) [µg/mL],MIC (P. aeruginosa PAO1; [6]) [µg/mL],MIC (P. aeruginosa PAO1; [7]) [µg/mL],MIC (E. coli ATCC 25922; [8]) [µg/mL],MIC (E. coli ATCC 25922; [9]) [µg/mL],"activity compared with C109, in words (B. cenocepacia J2315)","spectrum of activity, in words (S. aureus ATCC 25923)","MIC (B. cenocepacia J2315; J2315, 48 h, read-out: MIC B. cenocepacia J2315) [µg/mL]","MIC (B. cenocepacia J2315; J2315, read-out: MIC (µg/ml) B. cenocepacia J2315) [µg/mL]"
CN(C)C(=S)Sc1ccc2nsnc2c1[N+](=O)[O-] [compound 10126130],10,Yes,Yes,137 to 139,32,32,> 128,> 128,> 128,> 128,512,512,,,,
CCOC(=O)CCSc1ccc2nsnc2c1[N+](=O)[O-] [compound 10226047],,No,No,89 to 91,> 512,> 512,> 512,> 512,> 128,> 128,> 512,> 512,completely loss of activity,,,
N#CSc1cc(SC#N)c2nsnc2c1[N+](=O)[O-] [compound 10626056],52,Yes,Yes,167 to 169,8,8,> 64,> 64,> 128,> 128,> 512,> 512,,showed activity only against S. aureus,,
CCCCCSc1ccc2nsnc2c1[N+](=O)[O-] [compound 10726015],,No,No,116 to 118,512,512,> 64,> 64,> 128,> 128,> 512,> 512,,,,
N#CSc1cc(-c2ccc([N+](=O)[O-])cc2)c2nsnc2c1[N+](=O)[O-] [compound 11026176],17,Yes,Yes,,4,4,,,> 128,> 128,> 512,> 512,,showed activity only against S. aureus,> 512,> 512
CCOc1cc(SC#N)c2nsnc2c1[N+](=O)[O-] [compound 11026177],19,Yes,Yes,128 to 129,4,4,> 512,> 512,64,64,> 512,> 512,,showed activity only against S. aureus,,
COc1cc(SC#N)c2nsnc2c1[N+](=O)[O-] [compound 11126009],4,Yes,Yes,143 to 145,8,8,> 128,> 128,> 128,> 128,> 512,> 512,,showed activity only against S. aureus,,
CC(C)Oc1cc(SC#N)c2nsnc2c1[N+](=O)[O-] [compound 11126010],15,Yes,Yes,116 to 118,4,4,> 128,> 128,> 128,> 128,> 512,> 512,,showed activity only against S. aureus,,
O=[N+]([O-])c1c(SC(=S)N2CCSCC2)ccc2nsnc12 [compound 11126015],36,Yes,Yes,140 to 142,32,32,> 128,> 128,> 128,> 128,> 512,> 512,,showed activity only against S. aureus,,
O=C(O)CSc1ccc2nsnc2c1[N+](=O)[O-] [compound 11426177],,No,No,215 to 217,256,256,> 128,> 128,,,> 512,> 512,not active against B. cenocepacia,,,
CCOC(=O)COc1ccc2nsnc2c1[N+](=O)[O-] [compound 11726041],,No,No,131 to 133,> 256,> 256,> 256,> 256,,,> 512,> 512,completely loss of activity,,,
CCOC(=O)CNc1ccc2nsnc2c1[N+](=O)[O-] [compound 11726042],,No,No,169 to 171,> 256,> 256,> 256,> 256,,,> 512,> 512,completely loss of activity,,,
